The record followed here is patent publication US20100184802A1, “Bicycloheteroaryl Compounds as P2X7 Modulators and Uses Thereof” (priority 2006, published 2010).

The nature of series [1]: Half-life in human liver microsomes (HLM). The format is in vitro ADME. The note with it: human liver microsomes (HLM, HL101); human liver microsomes 0.78 mg/mL, 1 μM compound, NADPH, pH 7.4, 37° C.
Protocol: Test compounds (1 μM) are incubated with 3.3 mM MgCl2 and 0.78 mg/mL HLM (HL101) in 100 mM potassium phosphate buffer (pH 7.4) at 37° C. on the 96-deep well plate. The reaction mixture is split into two groups, a non-P450 and a P450 group. NADPH is only added to the reaction mixture of the P450 group. An aliquot of samples of P450 group is collected at 0, 10, 30, and 60 min time point, where 0 min time point indicated the time when NADPH is added into the reaction mixture of P450 group. […] Collected aliquots are extracted with acetonitrile solution containing an internal standard. […] The compound concentration in supernatant is measured by LC/MS/MS system.
The half-life value is obtained by plotting the natural logarithm of the peak area ratio of compounds/internal standard versus time. The slope of the line of best fit through the points yields the rate of metabolism (k). This is converted to a half-life value using following equations:
The target of series [2] is T1, P2X7 receptor (IL-1β release from THP-1 cells) (Homo sapiens, UniProt Q99572).
T1 construct: host or cells: THP-1 cells differentiated with LPS and IFN-γ
T1 sequence (Q99572 1-595): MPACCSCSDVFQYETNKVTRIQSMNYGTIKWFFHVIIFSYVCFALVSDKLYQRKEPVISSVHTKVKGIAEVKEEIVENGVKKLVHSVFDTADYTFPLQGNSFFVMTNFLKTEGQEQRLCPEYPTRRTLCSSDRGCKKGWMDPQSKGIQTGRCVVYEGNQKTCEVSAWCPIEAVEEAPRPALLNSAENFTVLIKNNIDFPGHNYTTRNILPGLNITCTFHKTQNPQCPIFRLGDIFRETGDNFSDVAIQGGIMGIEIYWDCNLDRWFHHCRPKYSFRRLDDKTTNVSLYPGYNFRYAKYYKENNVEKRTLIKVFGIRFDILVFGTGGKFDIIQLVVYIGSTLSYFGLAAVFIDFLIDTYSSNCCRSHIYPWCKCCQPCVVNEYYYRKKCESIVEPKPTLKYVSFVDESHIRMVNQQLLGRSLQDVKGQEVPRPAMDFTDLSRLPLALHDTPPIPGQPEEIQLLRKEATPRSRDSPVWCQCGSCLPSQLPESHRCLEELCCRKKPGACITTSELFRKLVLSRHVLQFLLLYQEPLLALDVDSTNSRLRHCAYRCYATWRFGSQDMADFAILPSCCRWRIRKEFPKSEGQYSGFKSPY
Nature of the series: IL-1β release assay in differentiated THP-1 cells stimulated with BzATP (Example 9). The format is cell-based. As to conditions: for inhibition at 0.3 µM: 0.3 μM concentration, BzATP 250 uM, read-out: IL-1β % Inhib. @ 0.3 or 0.1 μM; for IC50: released IL-1β as in Example 9, four parameter logistic fit.

Series [3] can be described thus: Pharmacokinetic evaluation following intravenous and oral administration in rats. Format: in vivo. As to conditions: rat, plasma; male Sprague-Dawley rats; PO 1 to 5 mg/kg vs IV, AUCinf dose-normalized; mean % F. On the procedure: Male Sprague-Dawley rats are acclimatized for at least 24 hours prior to experiment initiation. During the acclimation period, all animals receive food and water ad libitum. However, food but not water is removed from the animals' cages at least 12 hours before initiation of the experiment. During the first 3 hours of experimentation, the animals receive only water ad libitum. At least three animals each are tested for intravenous and oral dosage. For intravenous formulation, compounds were dissolved (0.25 to 1 mg/mL) in a mixture of 3% dimethyl sulfoxide, 40% PEG 400 and the rest percentage of 40% Captisol in water (w/v). The animals are weighed before dosing. The determined body weight is used to calculate the dose volume for each animal.
Dose volume (mL/kg)=1 mg/kg/formulation concentration (mg/mL)
In instances where the formulation concentrations were less than 0.5 mg/mL, the dosing volume is about 2 mL/kg.
For oral formulation, compounds of this invention are suspended (0.5 to 0.75 mg/mL) in a mixture of 5% of 10% Tween 80 in water (v/v) and 95% of 0.5% methyl cellulose in water (w/v). PO rats are typically dosed through oral gavage following the same dose volume formula as IV to achieve a dose level of 1 to 5 mg/kg. For IV dosing, blood samples are collected (using a pre-heparinized syringe) via the jugular vein catheter at 2, 5, 15, 30, 60, 120, 180, 300, 480, and 1440 minutes post dosing. For PO dosing, blood samples are collected (using a pre-heparinized syringe) via the jugular vein catheter before dosing and at 5, 15, 30, 60, 120, 180, 300, 480, and 1440 minutes post dosing. About 250 uL of blood is obtained at each time point from the animal. Equal volumes of 0.9% normal saline are replaced to prevent dehydration. The whole blood samples are maintained on ice until centrifugation. Blood samples are then centrifuged at 14,000 rpm for 10 minutes at 4° C. and the upper plasma layer transferred into a clean vial and stored at −80° C. The resulting plasma samples are then analyzed by liquid chromatography-tandem mass spectrometry. Following the measurement of plasma samples and dosing solutions, plasma concentration-time curve is plotted. Plasma exposure is calculated as the area under the concentration-time curve extrapolated to time infinite (AUCinf). The AUCinf is averaged and the oral bioavailability (% F) for individual animal is calculated as:
AUCinf(PO)/AUCinf(IV), normalized to their respective dose levels.
The % F is reported as the mean % F of all animals dosed orally with the compound of the invention at the specified level (Table 4).

In series [1], `CC(C(=O)Nc1cccc2c(=O)n([C@H](C)C(N)=O)ccc12)C1CCCCCC1` (stereo partly drawn) [Compound 600] had a half-life at 1 μM of 15 min. In addition, in series [2], the inhibition at 0.3 µM was over 76% and the concentration for half-maximal inhibition (IC50) was 12.2 nM. In addition, in series [3], the bioavailability was in the range of 0 to 25%.
On the same counts, the results for `C[C@H](C(=O)O)n1ccc2c(NC(=O)CC34CC5CC(CC(C5)C3)C4)cccc2c1=O` [Compound 601] are 22.2 min, over 76%, 9.08 nM and 0 to 25%.
As to `C[C@H](C(N)=O)n1ccc2c(NC(=O)CC34CC5CC(CC(C5)C3)C4)c(Cl)ccc2c1=O` [Compound 602, (R)-2-[5-(2-Adamantan-1-yl-acetylamino)-6-chloro-1-oxo-1H-isoquinolin-2-yl]-propionamide], the half-life at 1 μM in series [1] was 45.6 min. Also, the IC50 in series [2] worked out at 0.088 nM. In series [3], this molecule showed a bioavailability of 0 to 25%.
On to `C[C@H](CO)n1ccc2c(NC(=O)CC3CCCCCC3)cccc2c1=O` [Compound 606, 2-Cycloheptyl-N-[2-((R)-2-hydroxy-1-methyl-ethyl)-1-oxo-1,2-dihydro-isoquinolin-5-yl]-acetamide], for which the half-life at 1 μM in series [1] is 23.4 min. In series [2], the inhibition at 0.3 µM was over 76% and the IC50 was determined as 4.59 nM. The molecule also came in with a bioavailability in series [3] of 0 to 25%.
